Series [1] can be described thus: Brain levels after oral dosing in mice by LC/MS/MS. In kind it is in vivo, Male CD1 mice. To be noted: brains collected at 2, 4 and 7 hrs post-dose after oral dosing of test compounds. The method, then: Animals: Male CD1 mice (Charles River) weighing about 25 g—with free access to food and water.
Dose Groups The compounds of this invention were administered to the test animals at a dose, which is molar equivalent to 10 mg/kg of the parent compound, ((R)-3-amino-2-hydroxy-propyl)-cyclohexylmethyl-phosphinic acid. Each of the test compounds was formulated at this dose level to yield a dose volume of 10 mL/kg and administered by oral gavage to a group of three mice per time point in each study group. Formulations: The compounds of this invention were dissolved in vehicle of 0.2% Tween 80 and 0.5% methylcellulose (MC) at a concentration of about 1 mg/mL. Samples: The blood samples (for plasma) were collected at the following time points: 5, 15 30 and 45 min […]; and 1, 2, 3, 4, 5, and 7 hrs post-dose. Brains were collected at 2, 4 and 7 hrs post-dose Blood Handling The blood samples were added to tubes containing 20 μL of a stock 10 mg/ml solution of sodium fluoride. The blood tubes were then stored in a refrigerator at approximately about 4° C. […] Bioanalysis: All plasma and brain samples were then analyzed for concentrations of the test compound as well as the parent compound, ((R)-3-amino-2-hydroxy-propyl)-cyclohexylmethyl-phosphinic acid by LC/MS/MS. […]
Whereas, in most cases, the levels of the test compound was too small to be detected for all of the test compounds analyzed.

Series [2] concerns Male Wistar rats. Kind of series: Chronic Mild Stress Model (CMS), sucrose consumption. In kind it is in vivo. To be noted: 3 and 30 mg/kg orally, daily for five weeks; imipramine 10 mg/kg ip. An excerpt:
CMS uses mild stressors, such as food and water deprivation, cage tilts, changes of cage mates, etc. Over a period of weeks of exposure to the mild stressors, the animals gradually reduce their consumption of a highly preferred sucrose solution which persists (in untreated animals) for several weeks following the cessation of stress. This decreased sensitivity to reward (the sucrose solution) reflects anhedonia, a symptom of a major depressive episode (see for example, Behavioral Pharmacol. 5: Suppl. 1, p. 86 (1994) where lithium, carbamazepine and ketoconazole were evaluated in CMS; Psychopharmacology 93:358-364 (1987) where a tricyclic antidepressant was evaluated in CMS; Behavioral Pharmacology: 5:344-350 (1994) where a catechol-O-methyl transferase inhibitor was evaluated in CMS). […]
The animals are first trained to consume a 1% sucrose solution; training consists of eight 1 hour baseline tests in which sucrose is presented, in the home cage, following 14 hours food and water deprivation; intake is measured by weighing pre-weighed bottles containing the sucrose solution at the end of the test. Subsequently, sucrose consumption is monitored, under similar conditions, at weekly intervals throughout the whole experiment. […]
Results are analyzed by multiple analysis of variance, followed by Fisher's LSD test for post hoc comparisons of means.

The structures appear in SMILES notation.

In the case of `NC[C@@H](O)CP(=O)(O)CC1CCCCC1` [parent compound, ((R)-3-amino-2-hydroxy-propyl)-cyclohexylmethyl-phosphinic acid], the “concentration of the parent compound in brain” value in series [1] is recorded as “proportional to the concentration of the parent compound in plasma”. Further, in series [2], the “activity in CMS (sucrose intake) compared with imipramine” value was “equal to that of imipramine”.

Values taken from US7687540B2, “Substituted propane phosphinic acid esters” (Aventis Pharmaceuticals Inc., priority 2005, dated 2010).
